Values quoted from earlier work as cited in US6551555B2, “Apparatus with a chemical indicator for indicating exposure to an oxidative sterilant or disinfectant” (Ethicon, Inc., priority 1997, dated 2003).

Details: Sigma-Aldrich catalog number 229288

CN(C)c1ccc(C(=C2C=CC(=[N+](C)C)C=C2)c2ccc(N(C)C)cc2)cc1 [crystal violet]
toxicity hazards: toxic and may cause cancer, heritable genetic damage and irritate the eyes, respiratory system and skin
